{
  "source": "patent US20060153931A1",
  "about": "“Prevention of flap necrosis in plastic surgery” (priority 2001, published 2006)",
  "key": {"[1]": {"system": "skin flaps based on the epigastric artery and vein", "test": "Rat epigastric skin flap model, ET-1 induced pedicle vasoconstriction (Background Example 1)", "type": "in vivo, rats"}, "headache": {"system": "headache", "type": "in vivo", "details": "oral capsules each containing 100 mg aspirin and 200 mg of CX—NO", "description": "CX—NO of Example 14 of U.S. Pat. No. 6,403,759 is formulated in a gel at 50 mM and is admixed with aspirin and the combination used to fill capsules each containing 100 mg aspirin and 200 mg of CX—NO. […] Alternatively, the CX—NO is used as or included in a coating for aspirin tablets (100 mg aspirin in a tablet), and administration orally of the coated aspirin provides the same result."}, "pedicle flap": {"system": "pedicle flap", "details": "30 minutes after lidocaine application, topical to pedicle; cited from earlier work"}, "[2]": {"system": "coronary artery bypass grafts", "test": "Patient with coronary artery bypass, vasospasm of the grafts (Example II)", "type": "in vivo, human"}, "[3]": {"system": "free tissue transfer of forearm tissues to the face", "details": "human, in vivo"}, "[4]": {"system": "island skin flaps based upon the epigastic artery and vein", "test": "Rat island skin flap model, ET-1 induced vasoconstriction, CX—NO (Background Example 2)", "type": "in vivo, rats", "details": "0.25 ml of 3.17 mM CX—NO in DMSO, 15 min after ET-1, FIG. 1"}, "[5]": {"details": "topical 10^−5 M ET-1 on pedicle"}, "[6]": {"details": "30 min after application, 2% lidocaine or 10^−4M ENO, 15 min after ET-1, mean±SEM"}, "[7]": {"details": "addition of 100 μM ethyl nitrite after lidocaine (2%)"}},
  "note": "Ends that are not written are not given here.",
  "data": [
    {"molecule": "ET-1: Endothelin-1, applied topically to induce pedicle vasoconstriction (CSCSSLMDKECVYFCHLDIIW; ends and bridges not checked; cysteine pairing not given here; UniProt P05305 53-73, looked up) [reference compound]", "values": [
      {"measurement": "vasoconstriction of the epigastric artery", "setting": "[1]; [5]", "value": "69-76%"},
      {"measurement": "vasoconstriction of the epigastric vein", "setting": "[1]; [5]", "value": "43-72%"},
      {"measurement": "reduction of flap blood flow to % of baseline", "setting": "[1]; topical 10^−5 M ET-1 on pedicle, laser Doppler", "value": "35-45 % of baseline"}
    ]},
    {"molecule": "O— and S-nitrosylated β-cyclodextrin", "values": [
      {"measurement": "headache relief", "setting": "headache", "value": "relieved headache"}
    ]},
    {"molecule": "CCN(CC)CC(=O)Nc1c(C)cccc1C", "note": "[lidocaine, reference compound]", "values": [
      {"measurement": "effect on vasoconstriction / blood flow, decreasing to % of baseline", "setting": "pedicle flap", "value": "≤ 50 % of baseline"},
      {"measurement": "blood flow in grafts", "setting": "[2]; topical lidocaine (2%)", "value": "temporary but marginal blood flow"}
    ]},
    {"molecule": "CCON=O", "note": "[ENO, ethyl nitrite]", "values": [
      {"measurement": "vasodilation and blood flow after vasospasm", "setting": "[3]", "value": "vasodilation and flow is restored"},
      {"measurement": "overall effect on arterial dilation and blood flow (in words)", "setting": "[1]; 2% lidocaine vs 10^−4M ENO", "value": "longer lasting and greater effect"},
      {"measurement": "time after application from which restoration of arterial diameter is greater compared to lidocaine (p<0.05)", "setting": "[1]; 10^−4M ENO vs 2% lidocaine", "value": 10, "unit": "min"},
      {"measurement": "time after application from which restoration of blood flow is greater compared to lidocaine (p<0.05)", "setting": "[1]; 10^−4M ENO vs 2% lidocaine", "value": 13, "unit": "min"},
      {"measurement": "arterial diameter", "setting": "[1]; 1 min after application (lidocaine: within 1 min), 2% lidocaine or 10^−4M ENO, 15 min after ET-1, mean±SEM", "value": "83±5 % of baseline"},
      {"measurement": "flap blood flow", "setting": "[1]; 2 min after application, 2% lidocaine or 10^−4M ENO, 15 min after ET-1, laser Doppler, mean±SEM", "value": "62±6 % of baseline"},
      {"measurement": "flap blood flow", "setting": "[1]; 30 min after application, 2% lidocaine or 10^−4M ENO, 15 min after ET-1, laser Doppler, mean±SEM", "value": "86±10 % of baseline"},
      {"measurement": "arterial diameter", "setting": "[1]; [6]", "value": "98±5 % of baseline"},
      {"measurement": "vein diameter", "setting": "[1]; [6]", "value": "75±5 % of baseline"},
      {"measurement": "EKG (ischemia)", "setting": "[2]; [7]", "value": "normalized EKG"},
      {"measurement": "blood flow in grafts", "setting": "[2]; [7]", "value": "restored flow"}
    ]},
    {"molecule": "CC(N=O)(S(C)(=O)=O)S(C)(=O)=O", "note": "[compound (1)]", "values": [
      {"measurement": "vasodilation and blood flow after vasospasm", "setting": "[3]", "value": "same result"}
    ]},
    {"molecule": "nitrosylated polythiolated cyclodextrin [CX—NO]", "values": [
      {"measurement": "arterial diameter as a percentage of baseline", "setting": "[4]", "value": "increase"},
      {"measurement": "vein diameter as a percentage of baseline", "setting": "[4]", "value": "increase"},
      {"measurement": "blood flow in small vessels as a percentage of baseline flow", "setting": "[4]; laser Doppler", "value": "increase"}
    ]}
  ]
}
